Test results from paper PMC10544575, “Inhibitory mechanism of vortioxetine on CYP450 enzymes in human and rat liver microsomes” (Frontiers in Pharmacology, 2023).

Tests used:
CYP2C-2 = test: Reversible inhibition kinetics (Lineweaver-Burk), CYP2C-2 in RLMs; assay type: in vitro ADME, rat
Experimental: The components of the incubation system were as follows: 0.20 mg/mL HLMs or 0.20 mg/mL RLMs, 0.1 M Tris-HCl, vortioxetine, and the probe substrates of each enzyme. In the study of Km’s (Michaelis–Menten constant) experiment, midazolam (1, 2, 5, 10, 20, 50 and 100 μM in HLMs and RLMs) corresponded to CYP3A4/3A; bupropion (10, 20, 50, 100, 200, 500, 1,000 and 2000 μM in HLMs; 1, 2, 5, 10, 20, 50, 100 and 200 μM in RLMs) corresponded to CYP2B6/2B; amodiaquine (5, 10, 20, 50, 100 and 200 μM in HLMs; 10, 20, 50, 100, 200, 500 μM in RLMs) corresponded to CYP2C8/CYP2C-1; losartan (1, 2, 5, 10, 20, 50, 100, 200 μM in HLMs; 10, 20, 50, 100, 200, 500 and 1,000 μM in RLMs) corresponded to CYP2C9/CYP2C-2; mephenytoin (20, 50, 100, 200, 500 and 1,000 μM in HLMs; 5, 10, 20, 50, 100, 200, 500 and 1,000 μM in RLMs) corresponded to CYP2C19/CYP2C-3; and dextromethorphan (1, 2, 5, 10, 20, 50 and 100 μM in HLMs and RLMs) corresponded to CYP2D6/CYP2D. […]
(§1) All experiments results were detected by UPLC-MS/MS, which equipped with a Waters Acquity UPLC system (Milford, MA, United States) and a Waters Xevo TQ-S triple quadrupole tandem mass spectrometer with an electrospray ionization source (Milford, MA, United States). […]
(§2) IC50 values and enzyme kinetic parameters were calculated by Graphpad Prism 6.0 (GraphPad software Inc., CA, United States). […] Data for each experiment were expressed as mean ± SD (n = 3).

CYP2C-1 = test: IC50-shift experiment, CYP2C-1 in RLMs; assay type: in vitro ADME, rat
[1] = parameters: method as in Chen et al., 2018; details: single oral dose of 10 mg; 14 healthy subjects; ref Chen et al., 2018; cited from earlier work
CYP2B6 = molecular target: T1, CYP2B6 (Homo sapiens, UniProt P20813); test: Reversible inhibition kinetics (Lineweaver-Burk), CYP2B6 in HLMs; assay type: in vitro ADME; parameters: 0.20 mg/mL HLMs; from tissue; host or cells: human liver microsomes; details: bupropion
T1 sequence (P20813 1-491): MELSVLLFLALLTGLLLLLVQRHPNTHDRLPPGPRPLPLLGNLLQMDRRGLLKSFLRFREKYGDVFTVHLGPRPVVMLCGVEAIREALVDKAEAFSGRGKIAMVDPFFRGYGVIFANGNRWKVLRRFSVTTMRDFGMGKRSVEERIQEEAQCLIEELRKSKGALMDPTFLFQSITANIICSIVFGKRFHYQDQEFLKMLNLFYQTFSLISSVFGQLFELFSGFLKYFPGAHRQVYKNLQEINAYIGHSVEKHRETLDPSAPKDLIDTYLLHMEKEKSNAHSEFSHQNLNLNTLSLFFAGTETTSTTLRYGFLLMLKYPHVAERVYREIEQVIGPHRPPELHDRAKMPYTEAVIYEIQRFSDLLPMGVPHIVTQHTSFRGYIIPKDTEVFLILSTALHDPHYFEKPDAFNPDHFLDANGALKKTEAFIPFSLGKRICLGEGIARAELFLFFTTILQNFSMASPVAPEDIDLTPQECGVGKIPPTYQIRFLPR
Experimental: The components of the incubation system were as follows: 0.20 mg/mL HLMs or 0.20 mg/mL RLMs, 0.1 M Tris-HCl, vortioxetine, and the probe substrates of each enzyme. In the study of Km’s (Michaelis–Menten constant) experiment, midazolam (1, 2, 5, 10, 20, 50 and 100 μM in HLMs and RLMs) corresponded to CYP3A4/3A; bupropion (10, 20, 50, 100, 200, 500, 1,000 and 2000 μM in HLMs; 1, 2, 5, 10, 20, 50, 100 and 200 μM in RLMs) corresponded to CYP2B6/2B; amodiaquine (5, 10, 20, 50, 100 and 200 μM in HLMs; 10, 20, 50, 100, 200, 500 μM in RLMs) corresponded to CYP2C8/CYP2C-1; losartan (1, 2, 5, 10, 20, 50, 100, 200 μM in HLMs; 10, 20, 50, 100, 200, 500 and 1,000 μM in RLMs) corresponded to CYP2C9/CYP2C-2; mephenytoin (20, 50, 100, 200, 500 and 1,000 μM in HLMs; 5, 10, 20, 50, 100, 200, 500 and 1,000 μM in RLMs) corresponded to CYP2C19/CYP2C-3; and dextromethorphan (1, 2, 5, 10, 20, 50 and 100 μM in HLMs and RLMs) corresponded to CYP2D6/CYP2D. After 5.0 min of preincubation in the shaking water bath, the reaction was started with the addition of 1.0 mM NADPH. The incubated temperature at 37°C for 30 min. After the incubation, the enzyme reaction was stopped by cooling at −80°C, and 200 μL of acetonitrile and 20 μL of internal standard diazepam (200 ng/mL) were added for protein precipitation. The solution was fully vortexed and centrifuged at 13,000 × rpm for 10 min, and the supernatant was collected for data analysis by UPLC-MS/MS.
The inhibitory mechanism of the inhibitor on the enzyme was generally used by different concentrations of the inhibitor against different concentrations of the probe substrate. The concentrations of the inhibitor and the concentrations of probe substrates in the experiment were estimated based on IC50 and Km values, respectively.
In HLMs, the concentrations of the substrates midazolam, bupropion, amodiaquine, losartan, mephenytoin, and dextromethorphan were 1, 2, 4, 8 μM; 10, 20, 40, 80 μM; 0.8, 1.5, 3, 6 μM; 2, 4, 8, 16 μM; 20, 45, 90, 180 μM; 2.5, 5, 10, 20 μM, respectively. Corresponding to the concentration of vortioxetine were 2, 4, 9, 18 μM; 2, 4, 8, 16 μM; 4, 8, 15, 30 μM; 5, 10, 25, 50 μM; 0.6, 1.2, 2.5, 5 μM; 4.5, 9, 18, 36 μM, respectively.
as §1, with “States). The chromatographic separation was performed on a Waters ACQUITY UPLC BEH C18 column (2.1 × 50 mm, 1.7 μm, Waters Corp.) at 40°C.” for “States).”
as §2

Inhibition type (CYP2C-2; losartan, Lineweaver-Burk plot): competitive inhibition | Ki at 30 min (CYP2C-2; rat, rat liver microsomes, probe losartan): 0.12 µM | IC50 (CYP2C-1; 30 min preincubation without NADPH, amodiaquine 20 μM): 19.8 µM | IC50 at 30 min (CYP2C-1; rat, rat liver microsomes, probe amodiaquine, 30 min preincubation without NADPH, amodiaquine 20 μM): 18.3 µM | Ki (CYP2B6): 8.55 µM | α (CYP2B6): 2.70 | Inhibition type (CYP2B6; Lineweaver-Burk plot): mixed inhibition | αKi (CYP2B6; secondary plot of y-intercepts): 23.04 µM
SMILES: Cc1ccc(Sc2ccccc2N2CCNCC2)c(C)c1 [vortioxetine]
IC50 shift at 30 min (CYP2C-1; rat, rat liver microsomes, probe amodiaquine, ratio IC50 (−) NADPH to IC50 (+) NADPH, read-out: IC50 fold shift): 1.98 | AUC(0-t) [1]: 254.72 ngh/mL | Cmax [1]: 4.60 ng/mL
